Values after ≈ are worked out from the molar mass of the structure shown.
Legend:
[1] = test system: E. coli ESBL; test: Broth microdilution MIC, ESBL E. coli clinical strain; assay type: cell-based; settings: Escherichia coli
[2] = test system: K. pneumoniae ESBL; test: Broth microdilution MIC, ESBL K. pneumoniae clinical strain; assay type: cell-based; settings: Klebsiella pneumoniae
Description: (§1) The compounds were evaluated for their in vitro anti-bacterial activity against Gram-positive bacteria: S. aureus (ATCC 25923), MRSA, methicillin-sensitive S. aureus (MSSA), E. faecalis, vancomycin-resistant E. faecium (VREF), and Gram-negative bacteria: E. coli (ATCC 25925), P. aeruginosa (ATCC 27853), A. baumannii (ATCC 19606) and ESBL-producing K. pneumoniae (ATCC 27736). Standard broth microdilution method as recommended in guidelines of Clinical and Laboratory Standards Institute[61] ^, [65] ^, [66] was applied and the minimum inhibitory concentration (MIC) of compounds was tested. In short, testing was performed in U-bottomed 96-well sterile plastic microdilution trays (Falcon 3077, Becton Dickinson Labware, Franklin Lakes, NJ) in cation (Ca^2+ and Mg^2+) adjusted Mueller–Hinton broth medium (Becton Dickinson and Co., Cockeysville, MD). All testings were performed in triplicate.

[3] = test system: P. aeruginosa ESBL; test: Broth microdilution MIC, ESBL P. aeruginosa clinical strain; assay type: cell-based; settings: Pseudomonas aeruginosa
[4] = test system: E. coli ATCC 25925; test: Broth microdilution MIC, E. coli ATCC 25925; assay type: cell-based; settings: Escherichia coli, ATCC25925; Table S2
Description: as §1
(§2) The in vitro anti-bacterial activity of 5-amidinobenzimidazoles 7a–7e, 8a–8e, and 9a–9e was tested against Gram-positive bacteria including S. aureus (ATCC 25923), Enterococcus faecalis (ATCC 29212), and Gram-negative bacteria including E. coli (ATCC 25925), K. pneumoniae (ATCC 700803), P. aeruginosa (ATCC 27853), and Acinetobacter baumannii (ATCC 19606).

[5] = test system: P. aeruginosa ATCC 27853; test: Broth microdilution MIC, P. aeruginosa ATCC 27853; assay type: cell-based; settings: Pseudomonas aeruginosa, ATCC27853; Table S2
Description: as §1, §2

[6] = test system: calf thymus ctDNA; test: UV–Vis titration with ctDNA (Scatchard); assay type: binding; settings: PBS, pH 7; for Hypochromic effect H/%, ctDNA: UV–Vis titration, calculated by Scatchard equation; for log Ks, ctDNA: binding constant, Scatchard
Description: (§3) Polynucleotides were purchased as follows: polyG–polyC, polyA–polyU (Sigma-Aldrich, St. Louis, MO), calf thymus ctDNA (Aldrich). Polynucleotides were dissolved in PBS buffer, I = 0.05 mol dm^−3, pH 7.0. The calf thymus ctDNA was additionally sonicated and filtered through a […] filter. The polynucleotide concentration was spectroscopically determined as the concentration of nucleobases.
(§4) All UV–Vis absorbance measurements were conducted on a Perkin Elmer Lambda 25 spectrophotometer (Perkin Elmer, Waltham, MA). A quartz cell with a 1 cm path length was used for all absorbance studies. Compound stock solutions were 1 mM. The DNA/RNA at increasing ratios was then titrated into the compound buffer solution (1.48 × 10^−5 mol dm^−3) and the corresponding absorption spectra were recorded under the same conditions. All data were graphed and analysed using Origin software version 9.0 (OriginLab Corporation, Northampton, MA). The stability constants (Ks) and [bound compound]/[polynucleotide phosphate] ratios (n) were calculated according to the Scatchard Equation[63] ^, [64]. Values for Ks and n given in Table 1 all have satisfying correlation coefficients (0.99).
(§5) The binding constants logKs and the density of the binding sites n were calculated using Scatchard plot analysis. In addition, the binding constants Ks for compounds 8b and 8e were calculated only for titration data taken at the r ≥ 0.1, because below that ratio changes in absorption maxima were too small for accurate calculation (ΔA ≤ 0.04) (Table 1). The binding constants Ks and ratios n obtained by processing UV–Vis titration data using the Scatchard equation are summarised in Table 1.

[7] = test system: polyA-polyU; test: UV–Vis titration with polyA-polyU (Scatchard); assay type: binding; settings: PBS, pH 7; for Hypochromic effect H/%, polyA-polyU: UV–Vis titration, calculated by Scatchard equation; for log Ks, polyA-polyU: binding constant, Scatchard
Description: as §3, §4, §5

[8] = target: polyC-polyG; test: UV–Vis titration with polyC-polyG (Scatchard); assay type: binding; settings: PBS, pH 7; for log Ks, polyC-polyG: binding constant, Scatchard; for Hypochromic effect H/%, polyC-polyG: UV–Vis titration, calculated by Scatchard equation
Description: as §3, §4, §5

[9] = test system: ctDNA; test: Thermal melting (ΔTm) of ctDNA; assay type: binding, calf; settings: PBS, pH 7; for ΔTm, ctDNA, r = 0.3: r = [compound]/[polynucleotide] 0.3, error ±0.5 °C
Description: (§6) T m experiments were conducted with a Perkin Elmer Lambda 25 spectrophotometer in 1 cm quartz cuvettes. The absorbance of the DNA/RNA-compound complex was monitored at 260 nm as a function of temperature. The absorbance of the ligands was subtracted from every curve, and the absorbance scale was normalised. The ΔT m values were calculated by subtracting T m of the free nucleic acid from T m of the complex. Every reported ΔT m value was the average of at least two measurements. The error of ΔT m is ±0.5 °C. All data were graphed and analysed using Origin software version 9.0.
(§7) Denaturation experiments were carried out at different amounts of the compounds (r = 0.1, 0.3, 0.5, and 0.7 eq; r = [compound]/[polynucleotide]) with ctDNA and polyA-polyU.

[10] = test system: polyA-polyU; test: Thermal melting (ΔTm) of polyA-polyU; assay type: binding; settings: for ΔTm, polyA-polyU, r = 0.1: PBS, pH 7; for ΔTm, polyA-polyU, r = 0.3 / ΔTm, polyA-polyU, r = 0.5: first melting midpoint; for ΔTm, polyA-polyU, r = 0.3, second melting midpoint / ΔTm, polyA-polyU, r = 0.5, second melting midpoint: footnote c: biphasic melting curve
Description: as §6, §7

[11] = test system: S. aureus MRSA; test: Broth microdilution MIC, MRSA clinical strain; assay type: cell-based; settings: Staphylococcus aureus, antibiotic-resistant clinical strain
Description: as §1

[12] = test system: S. aureus MSSA; test: Broth microdilution MIC, MSSA clinical strain; assay type: cell-based; settings: Staphylococcus aureus
Description: as §1

[13] = test system: E. faecium VRE; test: Broth microdilution MIC, VRE clinical strain; assay type: cell-based; settings: Enterococcus faecium
Description: as §1

[14] = test system: S. aureus ATCC 25923; test: Broth microdilution MIC, S. aureus ATCC 25923; assay type: cell-based; settings: Staphylococcus aureus, ATCC25923; Table S2
Description: as §1, §2

[15] = test system: E. faecalis ATCC 29212; test: Broth microdilution MIC, E. faecalis ATCC 29212; assay type: cell-based; settings: Enterococcus faecalis, ATCC29212; Table S2
Description: as §1, §2

[16] = test system: K. pneumonia ATCC 700803; test: Broth microdilution MIC, K. pneumoniae ATCC 700803; assay type: cell-based; settings: Klebsiella pneumoniae, ATCC700803; Table S2
Description: as §1, §2

[17] = test system: A. baumannii ATCC 19606; test: Broth microdilution MIC, A. baumannii ATCC 19606; assay type: cell-based; settings: Acinetobacter baumannii, ATCC19606; Table S2
Description: as §1, §2

[18] = test system: bloodstream form T. brucei (strain 221); test: Anti-trypanosomal screening, resazurin; assay type: cell-based; settings: Trypanosoma brucei, mean of triplicate ± SEM
Description: Bloodstream form T. brucei (strain 221) were cultured in modified Iscove’s medium, as outlined[67] and trypanocidal assays were performed using 96-well microtitre plates. […] Resazurin was added after 48 h, the plates incubated for a further 16 h, and then read in a Spectramax plate reader (Molecular Devices Corporation, San Jose, CA). The data were analysed using GraphPad Prism (GraphPad, La Jolla, CA). Each drug concentration was tested in triplicate.

[19] = test system: polyA-polyU (RNA, polymer) A/U; test: UV melting at 260 nm; settings: PBS, I = 0.05 M, cations not specified, pH 7, r = 0.3 [compound]/[polynucleotide]
[20] = test system: polyA-polyU (RNA, polymer) A/U; test: UV-Vis titration, Scatchard; settings: PBS, I = 0.05 M (Table 1 says I = 0.015 M), cations not specified, I = 0.015 M (Methods: 0.05 M), pH 7, per base
[21] = test system: polyG-polyC (polyC-polyG) (RNA, polymer) G/C; test: UV-Vis titration, Scatchard; settings: PBS, I = 0.05 M (Table 1 says I = 0.015 M), cations not specified, I = 0.015 M (Methods: 0.05 M)

| Compound | MIC [1] [µg/mL] | MIC [2] [µg/mL] | MIC [3] [µg/mL] | MIC [4] [µg/mL] | MIC [5] [µg/mL] | Hypochromic effect H/%, ctDNA [6] [%] | log Ks, ctDNA [6] | Hypochromic effect H/%, polyA-polyU [7] [%] | log Ks, polyA-polyU [7] | log Ks, polyC-polyG [8] | ΔTm, ctDNA, r = 0.5 [9] [°C] | ΔTm, ctDNA, r = 0.7 [9] [°C] | ΔTm, ctDNA, r = 0.3 [9] [°C] | ΔTm, polyA-polyU, r = 0.1 [10] [°C] | ΔTm, polyA-polyU, r = 0.3 [10] [°C] | MIC [11] [µg/mL] | MIC [12] [µg/mL] | MIC [13] [µg/mL] | MIC [14] [µg/mL] | MIC [15] [µg/mL] | other results |
| --- | --- | --- | --- | --- | --- | --- | --- | --- | --- | --- | --- | --- | --- | --- | --- | --- | --- | --- | --- | --- | --- |
| CC(C)(O/N=C(\C(=O)N[C@@H]1C(=O)N2C(C(=O)[O-])=C(C[n+]3ccccc3)CS[C@H]12)c1csc(N)n1)C(=O)O [Ceftazidime, ceftazidime, reference compound] | 8 (≈ 14.6 µM) | > 128 | 32 (≈ 58.5 µM) | 0.5 (≈ 0.915 µM) | 4 (≈ 7.32 µM) |  |  |  |  |  |  |  |  |  |  |  |  |  |  |  |  |
| N=C(N)c1ccc2[nH]c(-c3ccc(OCc4cn(-c5ccccc5)nn4)cc3)nc2c1 [Compound 7a] | 4 (≈ 9.77 µM) | 8 (≈ 19.5 µM) | 128 (≈ 313 µM) | 32 (≈ 78.2 µM) | 128 (≈ 313 µM) | 7.8 | 6.76 | 19.3 | 5.24 | 6.44 | 4.84 | 4.69 | 2.46 | 1.74 | 1.74 | 16 (≈ 39.1 µM) | 32 (≈ 78.2 µM) | 32 (≈ 78.2 µM) | 32 (≈ 78.2 µM) | 64 (≈ 156 µM) | ΔTm, polyA-polyU, r = 0.5 [10]: 2.53 °C; MIC [16]: 128 µg/mL (≈ 313 µM); MIC [17]: > 256 µg/mL; IC50 [18]: 8.6 ± 0.5 µM; IC90 [18]: 16.2 ± 0.9 µM; ΔTm ([19]; error ±0.5, per base): 1.74 °C; log Ks [20]: 5.24; log Ks ([21]; pH 7, n fixed, per base): 6.44 |
| Cl.Cl.c1ccc(SCn2cc(COc3ccc(-c4nc5cc(C6=NCCN6)ccc5[nH]4)cc3)nn2)cc1 [Compound 9e, 5–(4,5-Dihydro-1H-imidazol-2-yl)-2–(4-((1-(phenylthiomethyl)-1H-1,2,3-triazol-4-yl)methoxy)phenyl)-1H-benz[d]imidazole dihydrochloride] | 64 |  | 64 | 64 | 128 | 41.1 | 6.21 | 31.6 | 5.36 | 4.29 | 3.47 | 3.60 | 2.87 | 1.11 | 0.47 | 64 | 64 | 32 | 32 | 128 | Hypochromic effect H/%, polyC-polyG [8]: 5.21%; ΔTm, polyA-polyU, r = 0.3, second melting midpoint [10]: 12.46^c °C; ΔTm, polyA-polyU, r = 0.5 [10]: 0.47 °C; ΔTm, polyA-polyU, r = 0.5, second melting midpoint [10]: 13.89^c °C; MIC [16]: > 256 µg/mL; MIC [17]: > 256 µg/mL; IC50 [18]: 9.7 ± 0.2 µM; IC90 [18]: 14 ± 0.3 µM; melting point: 162 to 164 °C; log Ks [20]: 5.36; log Ks ([21]; pH 7, n fixed, per base): 4.29 |
| Cl.Cl.N=C(N)c1ccc2[nH]c(-c3ccc(OCc4cn(CSc5ccccc5)nn4)cc3)nc2c1 [Compound 7e, 2–(4-((1-((Phenylthio)methyl)-1H-1,2,3-triazol-4-yl)methoxy)phenyl)-1H-benz[d]imidazole-5-carboximidamide dihydrochloride] | 32 | 16 | 32 | 32 | 64 | 38.2 | 5.33 | 31.7 | 6.20 | 5.89 | 2.62 | 2.66 | 2.19 | 0.39 | 1.11 | 32 | 128 | 64 | 32 | 128 | Hypochromic effect H/%, polyC-polyG [8]: 5.79%; ΔTm, polyA-polyU, r = 0.3, second melting midpoint [10]: 12.58^c °C; ΔTm, polyA-polyU, r = 0.5 [10]: 1.11 °C; ΔTm, polyA-polyU, r = 0.5, second melting midpoint [10]: 15.04^c °C; MIC [16]: 128 µg/mL; MIC [17]: > 256 µg/mL; IC50 [18]: 10.2 ± 1.3 µM; IC90 [18]: 15.9 ± 0.4 µM; melting point: 173 to 176 °C; ΔTm ([19]; error ±0.5, biphasic, second midpoint 12.58, per base): 1.11 °C; log Ks [20]: 6.20; log Ks ([21]; pH 7, per base): 5.89 |
| N=C(N)c1ccc2[nH]c(-c3ccc(OCc4cn(Cc5ccccc5)nn4)cc3)nc2c1 [Compound 7d] | 16 (≈ 37.8 µM) | 16 (≈ 37.8 µM) | 32 (≈ 75.6 µM) | 32 (≈ 75.6 µM) | 32 (≈ 75.6 µM) | 40.4 | 5.78 | 32.5 | 5.94 | 6.56 | 3.86 | 3.62 | 3.12 | 2.06 | 1.14 | 16 (≈ 37.8 µM) | 32 (≈ 75.6 µM) | 32 (≈ 75.6 µM) | 32 (≈ 75.6 µM) | 64 (≈ 151 µM) | MIC [16]: 64 µg/mL (≈ 151 µM); MIC [17]: > 256 µg/mL; IC50 [18]: 12.9 ± 0.2 µM; IC90 [18]: 18.2 ± 1 µM; ΔTm ([19]; error ±0.5, per base): 1.14 °C; log Ks [20]: 5.94; log Ks ([21]; pH 7, per base): 6.56 |

— article PMC6127852 (Journal of Enzyme Inhibition and Medicinal Chemistry, 2018)
